Experimental data from patent US20090176776A1, “SMALL MOLECULE INHIBITORS OF HIV-1 CAPSID ASSEMBLY” (UNIVERSITY OF ALABAMA AT BIRMINGHAM, priority 2005, published 2009).

What was measured:
[1] = target: T1, recombinant HIV-1 capsid protein (CA) (Human immunodeficiency virus type 1 group M subtype B, UniProt P12493); assay: Turbidity based HIV-1 capsid assembly assay; format: biochemical; conditions: initial assembly rate by turbidity; twofold dilutions over a 128 fold range; 30 μM CA, 2.25 M NaCl
T1 construct: recombinant HIV-1 capsid protein (CA); made in house
Description: The kinetics can be followed by monitoring the increase of turbidity using a spectrophotometer. The IC50 of the chemical compound tested is determined by titration. As the C-domain inhibits capsid assembly by forming CA-C-domain heterodimers, the effect of added C-terminal domain on the rate of assembly was evaluated by plotting the rate of assembly versus C-terminal domain concentration.
Soluble HIV-1 capsid protein can be triggered to assemble into tubes similar in diameter and morphology to intact cores by dilution into high iconic strength buffer. The kinetics of assembly can be followed by monitoring the increase in turbidity using a spectrophotometer (Lanham et al., J. Virol., 76:6900, 2002). This assembly assay was adapted to a 96-well, microplate format to allow for medium-throughput screening of compounds by measuring turbidity in a Nepeloskan Ascent plate reader (Thermo Electron Corp., UK). A DIVERSet™ library of 10,000 low molecular weight, “drug-like” compounds was purchased from ChemBridge Corp. (San Diego, Calif.). This library was selected for its potential bioavailability and application based on a pharmacophore diversity analysis. The average molecular weight of the compounds is 347 g/mol, the range being 200-596 g/mol. The compounds came plated in 96-well plates and solubilized in DMSO at 5 mgs/mL.
Turbidity based assay. A 1.5 μL aliquot of compound was diluted 90-fold into 50 mM Na2HPO4, […] buffer, pH 8 in an optically clear 96-well plate. The plate containing compounds and salt was read to check for compound solubility and to serve as a background reading for the assay. To initiate the assembly reaction, 15 μL of […] stock (in 50 mM Na2HPO4 pH 8) of recombinant HIV-1 capsid protein (CA), purified as described (Lanman et al., J. Virol., 76:6900, 2002), was added to each well of the 96-well plate using a multi-channel pipettor. […] Furthermore, the halftime of the assembly reaction is ˜5 minutes so reading the plate in thirds prevented loss of initial rate data. Therefore, CA was added to the first 4 lanes, the reactions followed for ten minutes, reading was paused, CA was then added to the next four lanes and the process repeated. Instrument settings are as follows: PMT gain of 500 V, lamp at 10V, and integration time of 60 ms. The data were exported to a custom designed Excel spreadsheet that allowed simultaneous plotting of kinetic curves.
Recombinant CA protein was purified as previously described and stored at 300 μM at −80° C. A turbidity based assembly assay, described above, was adapted to a 96-well, microplate format to allow for medium-throughput screening of compounds in a Nepheloskan Ascent plate reader (Thermo Electron Corp., UK). A 1.5 μL aliquot of compound or DMSO was diluted 90-fold into 50 mM Na2HPO4, 2.25 M NaCl buffer, pH 8 in an optically clear 96-well plate. To initiate the assembly reaction, 15 μL of the 300 μM stock (in 50 mM Na2HPO4 pH 8) of recombinant HIV-1 capsid protein (CA), was added to each well of the 96-well plate using a multi-channel pipettor.

[2] = MTS score (Table 1; method not described); format: cell-based; conditions: for MTS AVG 4 (No Effect): average of the MTS scores at 10, 30 and 100 μM; for MTS 10 μM: score at nominal 10 μM; for MTS 10 μM / MTS 30 μM / MTS 100 μM: 4 = No Effect; for MTS 30 μM: score at nominal 30 μM; for MTS 100 μM: score at nominal 100 μM
[3] = tested on: Luc-M7 cells; assay: Cell viability of Luc-M7 cells (Cell-Titer Glo); format: cell-based; parameters: unit: μM; conditions: mock-infected Luc-M7 cells, 6 days
Description: (§1) Anti-HIV Assays (Multiple Round). The inhibitory effects of the tested compounds on HIV-1YU2 replication were determined by the level of luciferase expression after 6 days of infection using Bright-Glo assay (Promega). An amount of 1.5×10^4 Luc-M7 (a gift from Ned Landau) cells per ml were infected with HIV-1YU2 at a multiplicity of infection (MOI) of 3. The HIV-1 infected ([…] compound) or mock-infected (0-300 μM compound) Luc-M7 cells were placed in 96-well culture plates (100 μl/well) with 100 μl of various concentrations of the compounds with 20 μg/ml DEAE Dextran in triplicate and incubated at 37° C. under 5% CO2 at 100% humidity. After 6 days, cell viability was quantified by Cell-Titer Glo assay (Promega). […] On day 5 cell viability was determined in the mock-infected cells. FIGS. 12-18 show the anti-HIV assays for the examples of chemical compounds used according to the invention. After in-vitro assay, the chemical compounds in FIGS. 12-18 were selected for screening for cell viability and toxicity. Jurkat cells assay was used as screening assay. […] After five days, GFP expression was read. Cell viability was monitored with Alamar Blue assay. Luc M7 assay was designed to measure inhibitory activity of the chemical compounds to viral replication. After infection of cells with YU2 virus, plate cells in 96-well plate in the presence of six concentration of compounds in DMSO. At day 6, the number of cells in wells were read with Cell Titer Glo kit or by counting the number of cells infected with Bright Glo kit. 293T cells assay was designed to determine the toxicity. 293T cells were transfected with NL43. After four hours, transfected cells were plated in 96-well plate in DMSO and 2 μM Indinavir. 72 hours later, viral supernatant was collected and plated on J[…].

[4] = tested on: HIV-1YU2; assay: Anti-HIV assay (multiple round), luciferase expression in Luc-M7 cells; format: cell-based; conditions: Luc-M7 cells infected with HIV-1YU2, 6 days, Bright-Glo
Description: as §1

Cc1ccc(NCC(=O)NN=Cc2c(Br)cc(Br)c(O)c2Br)cc1 [Compound 17]
IC50 [1]: 11 µM
MTS AVG 4 (No Effect) [2]: 2.333
MTS 10 μM [2]: 4
MTS 30 μM [2]: 1
MTS 100 μM [2]: 2

Cc1ccc(OCC(=O)NN=Cc2ccncc2)cc1 [Compound 56]
IC50 [1]: 40 µM
MTS AVG 4 (No Effect) [2]: 3.333
MTS 10 μM [2]: 4
MTS 30 μM [2]: 3
MTS 100 μM [2]: 3

COc1ccc(OCC(=O)NN=Cc2cc(O)c(O)c(Br)c2)c(Br)c1 [Compound 71]
IC50 [1]: 24 µM
MTS AVG 4 (No Effect) [2]: 2.333
MTS 10 μM [2]: 4
MTS 30 μM [2]: 2
MTS 100 μM [2]: 1

CCOC(=O)c1c(N2C(=O)C=CC2=O)sc2c1CCCC2 [Compound 8]
TC50 [3]: 27.7
IC50 [4]: 13.3 µM
IC50 [1]: 4 µM
MTS AVG 4 (No Effect) [2]: 3.667
MTS 10 μM [2]: 4
MTS 30 μM [2]: 4
MTS 100 μM [2]: 3

O=C(O)c1ccc2c(c1)C1C=CCC1C(c1ccc([N+](=O)[O-])cc1)N2 (stereo not drawn) [Compound 41]
TC50 [3]: 65.8
IC50 [4]: 2.1 µM
IC50 [1]: 18 µM
MTS AVG 4 (No Effect) [2]: 3.667
MTS 10 μM [2]: 4
MTS 30 μM [2]: 4
MTS 100 μM [2]: 3

O=C1Nc2c(Br)cc(Br)cc2C1=NNC(=O)C(O)c1ccccc1 (stereo not drawn) [Compound 50]
IC50 [1]: 15 µM
MTS AVG 4 (No Effect) [2]: 2.333
MTS 10 μM [2]: 4
MTS 30 μM [2]: 2
MTS 100 μM [2]: 1

O=C(O)c1ccc2c(c1)C1C=CCC1C(c1cccc([N+](=O)[O-])c1)N2 (stereo not drawn) [Compound 59]
TC50 [3]: 84.1
IC50 [4]: 4.5 µM
IC50 [1]: 22 µM
MTS AVG 4 (No Effect) [2]: 4.000
MTS 10 μM [2]: 4
MTS 30 μM [2]: 4
MTS 100 μM [2]: 4

O=C(NN=Cc1c(Br)cc(Br)c(O)c1Br)c1ccccc1[N+](=O)[O-] [Compound 23]
IC50 [1]: 12 µM
MTS AVG 4 (No Effect) [2]: 3.667
MTS 10 μM [2]: 4
MTS 30 μM [2]: 4
MTS 100 μM [2]: 3

CC(=NNC(=O)C(O)c1ccccc1)c1ccc2c(c1)CCCC2 (stereo not drawn) [Compound 6]
TC50 [3]: 36.8
IC50 [4]: 15.4 µM
IC50 [1]: 9 µM
MTS AVG 4 (No Effect) [2]: 3.000
MTS 10 μM [2]: 4
MTS 30 μM [2]: 3
MTS 100 μM [2]: 2

CC(C)(C)c1ccc(OCCN2CCOCC2)cc1 [Compound 60]
TC50 [3]: 125.3
IC50 [4]: 6.98 µM
IC50 [1]: 75 µM
MTS AVG 4 (No Effect) [2]: 3.333
MTS 10 μM [2]: 4
MTS 30 μM [2]: 4
MTS 100 μM [2]: 2

Cc1ccc(C(C)C)c(OCC(=O)NN=Cc2ccc(C(=O)O)cc2)c1 [Compound 65]
IC50 [1]: 14 µM
MTS AVG 4 (No Effect) [2]: 3.667
MTS 10 μM [2]: 4
MTS 30 μM [2]: 4
MTS 100 μM [2]: 3

Nc1nc(-c2ccccc2Cl)cs1 [Compound 15]
TC50 [3]: 58.9
IC50 [4]: 19.8 µM
IC50 [1]: 60 µM
MTS AVG 4 (No Effect) [2]: 3.000
MTS 10 μM [2]: 4
MTS 30 μM [2]: 3
MTS 100 μM [2]: 2

Cc1cc(F)ccc1NCc1ccccn1 [Compound 16]
TC50 [3]: 66.5
IC50 [4]: 17.8 µM
IC50 [1]: 95 µM
MTS AVG 4 (No Effect) [2]: 3.000
MTS 10 μM [2]: 4
MTS 30 μM [2]: 4
MTS 100 μM [2]: 1

CC(C)(C)c1ccc(OCC(=O)NN=Cc2ccc(O)c([N+](=O)[O-])c2)cc1 [Compound 38]
IC50 [1]: 35 µM
MTS AVG 4 (No Effect) [2]: 3.333
MTS 10 μM [2]: 4
MTS 30 μM [2]: 3
MTS 100 μM [2]: 3

O=C(COc1ccc2ccccc2c1)NN=Cc1cc(O)c(O)c(Br)c1 [Compound 53]
IC50 [1]: 33 µM
MTS AVG 4 (No Effect) [2]: 2.000
MTS 10 μM [2]: 4
MTS 30 μM [2]: 1
MTS 100 μM [2]: 1

Oc1ccc(C=NNc2cc(N3CCOCC3)nc(N3CCOCC3)n2)c(O)c1 [Compound 9]
IC50 [1]: 7 µM
MTS AVG 4 (No Effect) [2]: 2.000
MTS 10 μM [2]: 4
MTS 30 μM [2]: 1
MTS 100 μM [2]: 1

Cc1ccc(OCC(=O)NN=Cc2c(Br)cc(Br)c(O)c2Br)cc1 [Compound 3]
IC50 [1]: 7 µM
MTS AVG 4 (No Effect) [2]: 3.667
MTS 10 μM [2]: 4
MTS 30 μM [2]: 3
MTS 100 μM [2]: 4

O=C(NN=Cc1cc(Cl)cc([N+](=O)[O-])c1O)c1ccc2c(c1)OCO2 [Compound 37]
MTS AVG 4 (No Effect) [2]: 2.000
MTS 10 μM [2]: 4
MTS 30 μM [2]: 1
MTS 100 μM [2]: 1

COc1c(O)ccc(C=NNC(=O)COc2cccc(C)c2)c1[N+](=O)[O-] [Compound 39]
IC50 [1]: 28 µM
MTS AVG 4 (No Effect) [2]: 2.333
MTS 10 μM [2]: 4
MTS 30 μM [2]: 2
MTS 100 μM [2]: 1
